target: T1, 5-hydroxytryptamine receptor 1A (Rattus norvegicus, UniProt P19327); assay type: cell membranes, CHO-K1, Membrane; settings: cho-k1; further: in other assays of this panel Not Active means under 50% inhibition at 10 µM
T1 sequence (P19327 whole entry): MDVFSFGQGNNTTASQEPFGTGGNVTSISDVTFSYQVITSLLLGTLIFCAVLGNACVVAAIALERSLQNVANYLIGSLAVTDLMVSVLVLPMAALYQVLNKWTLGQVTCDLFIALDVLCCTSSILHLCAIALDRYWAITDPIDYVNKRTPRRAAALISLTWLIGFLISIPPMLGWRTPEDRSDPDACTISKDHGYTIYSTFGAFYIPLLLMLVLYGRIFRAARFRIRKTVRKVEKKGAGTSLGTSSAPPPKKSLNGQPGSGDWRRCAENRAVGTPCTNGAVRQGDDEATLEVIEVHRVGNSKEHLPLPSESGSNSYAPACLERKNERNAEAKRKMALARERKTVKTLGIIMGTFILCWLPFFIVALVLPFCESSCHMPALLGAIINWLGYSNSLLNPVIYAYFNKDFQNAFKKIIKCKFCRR

Compound | IC50 | Ki
CARBOPLATIN | Not Active | Not Active
GOLD SODIUM THIOMALATE | Not Active | Not Active
OXALIPLATIN | Not Active | Not Active
CCCCCCCCCc1ccc(O)cc1 [4-NONYLPHENOL] | Not Active | 
c1ccc2c(c1)cc1ccc3cccc4ccc2c1c34 | Not Active | 

system: not listed separately; assay: DRUGMATRIX: Atrial Natriuretic Factor (ANF) radioligand binding (ligand: [125I] ANF (rat)); assay type: cell membranes, Cavia porcellus, Dunkin-Hartley, Adrenal gland, Membrane; settings: Not Active = under 50% inhibition at 10 µM

Compound | IC50 | Ki
CARBOPLATIN | Not Active | Not Active
GOLD SODIUM THIOMALATE | Not Active | Not Active
OXALIPLATIN | Not Active | Not Active
CCCCCCCCCc1ccc(O)cc1 [4-NONYLPHENOL] | Not Active | Not Active
c1ccc2c(c1)cc1ccc3cccc4ccc2c1c34 | Not Active | Not Active

target: Cytochrome P450 2C9 (Homo sapiens, UniProt P11712); settings: bti-tn-5b1-4; further: in other assays of this panel Not Active means under 50% inhibition at 10 µM
Sequence (P11712 whole entry): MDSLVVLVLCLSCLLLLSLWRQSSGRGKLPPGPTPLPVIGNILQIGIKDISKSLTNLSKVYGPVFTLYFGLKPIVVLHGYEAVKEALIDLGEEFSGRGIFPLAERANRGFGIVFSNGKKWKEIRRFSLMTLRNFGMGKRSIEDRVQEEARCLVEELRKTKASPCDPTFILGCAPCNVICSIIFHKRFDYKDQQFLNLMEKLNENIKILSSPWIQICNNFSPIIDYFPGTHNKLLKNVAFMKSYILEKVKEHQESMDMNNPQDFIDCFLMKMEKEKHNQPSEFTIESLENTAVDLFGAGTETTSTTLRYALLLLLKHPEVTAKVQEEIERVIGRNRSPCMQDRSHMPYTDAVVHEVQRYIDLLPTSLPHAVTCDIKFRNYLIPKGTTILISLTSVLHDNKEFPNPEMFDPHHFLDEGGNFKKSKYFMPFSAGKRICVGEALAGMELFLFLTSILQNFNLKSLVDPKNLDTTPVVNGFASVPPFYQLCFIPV

Compound | IC50 | Ki
CARBOPLATIN | Not Active | Not Active
GOLD SODIUM THIOMALATE | Not Active | Not Active
OXALIPLATIN | Not Active | Not Active
CCCCCCCCCc1ccc(O)cc1 [4-NONYLPHENOL] | Not Active | Not Active
c1ccc2c(c1)cc1ccc3cccc4ccc2c1c34 | Not Active | Not Active

target: T2, Endothelin-1 receptor (Homo sapiens, UniProt P25101); assay type: cell membranes, Membrane; settings: cho-k1; further: in other assays of this panel Not Active means under 50% inhibition at 10 µM
T2 sequence (P25101 whole entry): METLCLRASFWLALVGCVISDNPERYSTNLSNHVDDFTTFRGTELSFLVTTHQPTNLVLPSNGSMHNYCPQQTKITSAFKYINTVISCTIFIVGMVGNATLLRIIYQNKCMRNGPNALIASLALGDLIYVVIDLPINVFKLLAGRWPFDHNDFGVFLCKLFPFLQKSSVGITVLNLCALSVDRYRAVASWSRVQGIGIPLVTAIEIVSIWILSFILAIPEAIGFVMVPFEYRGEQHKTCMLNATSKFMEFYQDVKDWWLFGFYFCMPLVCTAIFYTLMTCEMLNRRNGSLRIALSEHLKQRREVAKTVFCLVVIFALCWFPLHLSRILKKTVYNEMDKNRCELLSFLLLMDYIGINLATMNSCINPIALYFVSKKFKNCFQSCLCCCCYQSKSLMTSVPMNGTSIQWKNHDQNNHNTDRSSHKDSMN

Compound | IC50 | Ki
CARBOPLATIN | Not Active | Not Active
GOLD SODIUM THIOMALATE | Not Active | Not Active
OXALIPLATIN | Not Active | Not Active
CCCCCCCCCc1ccc(O)cc1 [4-NONYLPHENOL] | Not Active | 
c1ccc2c(c1)cc1ccc3cccc4ccc2c1c34 | Not Active | 

target: T3, Muscarinic acetylcholine receptor M2 (Homo sapiens, UniProt P08172); assay type: cell membranes, CHO-K1, Membrane; settings: cho-k1; further: in other assays of this panel Not Active means under 50% inhibition at 10 µM
T3 sequence (P08172 whole entry): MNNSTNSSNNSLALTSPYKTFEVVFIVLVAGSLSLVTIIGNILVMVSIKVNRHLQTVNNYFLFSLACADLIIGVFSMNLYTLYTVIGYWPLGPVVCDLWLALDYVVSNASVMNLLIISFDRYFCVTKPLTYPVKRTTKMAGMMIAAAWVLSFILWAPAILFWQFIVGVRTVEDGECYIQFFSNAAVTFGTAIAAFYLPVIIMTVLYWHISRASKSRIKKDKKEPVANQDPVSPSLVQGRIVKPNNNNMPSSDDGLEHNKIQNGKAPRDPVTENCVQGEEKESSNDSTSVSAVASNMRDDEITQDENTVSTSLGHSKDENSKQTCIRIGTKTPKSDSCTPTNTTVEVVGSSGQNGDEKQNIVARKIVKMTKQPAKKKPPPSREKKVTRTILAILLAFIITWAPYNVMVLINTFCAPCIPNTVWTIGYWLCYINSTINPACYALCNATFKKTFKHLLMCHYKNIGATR

Compound | IC50 | Ki
CARBOPLATIN | Not Active | Not Active
GOLD SODIUM THIOMALATE | Not Active | Not Active
OXALIPLATIN | Not Active | Not Active
CCCCCCCCCc1ccc(O)cc1 [4-NONYLPHENOL] | Not Active | 
c1ccc2c(c1)cc1ccc3cccc4ccc2c1c34 | Not Active | 

target: T4, Alpha-2C adrenergic receptor (Homo sapiens, UniProt P18825); assay: DRUGMATRIX: Adrenergic Alpha-2C radioligand binding (ligand: [3H] MK-912); assay type: cell membranes, Sf9, Membrane; settings: sf9
T4 sequence (P18825 whole entry): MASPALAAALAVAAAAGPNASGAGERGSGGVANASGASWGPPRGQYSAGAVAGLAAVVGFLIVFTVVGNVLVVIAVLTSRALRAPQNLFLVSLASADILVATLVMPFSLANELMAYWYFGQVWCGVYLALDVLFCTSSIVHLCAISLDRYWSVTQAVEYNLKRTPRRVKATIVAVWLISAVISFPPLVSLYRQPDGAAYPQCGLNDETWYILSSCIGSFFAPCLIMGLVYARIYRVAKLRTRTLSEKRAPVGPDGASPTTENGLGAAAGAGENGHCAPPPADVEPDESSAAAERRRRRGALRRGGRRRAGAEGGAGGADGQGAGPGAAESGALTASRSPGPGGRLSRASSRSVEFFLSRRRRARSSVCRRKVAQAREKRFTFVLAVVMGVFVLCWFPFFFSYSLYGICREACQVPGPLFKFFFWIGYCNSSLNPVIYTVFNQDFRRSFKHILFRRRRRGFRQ

Compound | IC50 | Ki
CARBOPLATIN | Not Active | Not Active
GOLD SODIUM THIOMALATE | Not Active | Not Active
OXALIPLATIN | Not Active | Not Active
CCCCCCCCCc1ccc(O)cc1 [4-NONYLPHENOL] | Not Active | 
c1ccc2c(c1)cc1ccc3cccc4ccc2c1c34 | Not Active | 

target: Protein phosphatase 3 catalytic subunit alpha (Homo sapiens, UniProt Q08209); parameters: species or system Escherichia coli; settings: not given

Compound | IC50 | Ki
CARBOPLATIN | Not Active | Not Active
GOLD SODIUM THIOMALATE | Not Active | Not Active
OXALIPLATIN | Not Active | Not Active
CCCCCCCCCc1ccc(O)cc1 [4-NONYLPHENOL] | Not Active | 
c1ccc2c(c1)cc1ccc3cccc4ccc2c1c34 | Not Active | 

system: not listed separately; assay: DRUGMATRIX: Phosphodiesterase PDE3 enzyme inhibition (substrate: [3H]cAMP + cAMP); assay type: tissue-based, Homo sapiens; settings: platelet; Not Active = under 50% inhibition at 10 µM

Compound | IC50 | Ki
CARBOPLATIN | Not Active | Not Active
GOLD SODIUM THIOMALATE | Not Active | Not Active
OXALIPLATIN | Not Active | Not Active
CCCCCCCCCc1ccc(O)cc1 [4-NONYLPHENOL] | Not Active | Not Active
c1ccc2c(c1)cc1ccc3cccc4ccc2c1c34 | Not Active | Not Active

target: Sodium-dependent noradrenaline transporter (Homo sapiens, UniProt P23975); assay: DRUGMATRIX: Norepinephrine Transporter radioligand binding (ligand: [125I] RTI-55); assay type: cell membranes, MDCK, Membrane; settings: Not Active = under 50% inhibition at 10 µM; read-out: IC50
Sequence (P23975 whole entry): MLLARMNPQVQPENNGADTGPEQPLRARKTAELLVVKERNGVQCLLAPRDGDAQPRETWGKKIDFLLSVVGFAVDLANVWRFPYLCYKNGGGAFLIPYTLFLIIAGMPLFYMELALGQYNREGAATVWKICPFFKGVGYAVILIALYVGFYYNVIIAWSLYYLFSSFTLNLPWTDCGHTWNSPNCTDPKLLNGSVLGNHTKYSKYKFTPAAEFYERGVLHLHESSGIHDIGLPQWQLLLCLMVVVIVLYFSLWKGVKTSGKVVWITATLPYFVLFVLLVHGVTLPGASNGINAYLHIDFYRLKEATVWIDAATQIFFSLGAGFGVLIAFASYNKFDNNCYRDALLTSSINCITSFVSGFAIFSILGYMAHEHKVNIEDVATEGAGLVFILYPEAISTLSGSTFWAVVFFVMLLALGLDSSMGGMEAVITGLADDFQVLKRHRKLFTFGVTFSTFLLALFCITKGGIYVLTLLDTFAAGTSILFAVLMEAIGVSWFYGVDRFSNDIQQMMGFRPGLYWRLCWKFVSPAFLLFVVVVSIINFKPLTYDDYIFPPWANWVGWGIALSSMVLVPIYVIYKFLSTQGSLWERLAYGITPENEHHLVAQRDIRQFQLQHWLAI

Compound | IC50 [nM]
CCCCCCCCCc1ccc(O)cc1 [4-NONYLPHENOL] | 1250

same assay, conditions: Not Active = under 50% inhibition at 10 µM; read-out: Ki

Compound | Ki [nM]
CCCCCCCCCc1ccc(O)cc1 [4-NONYLPHENOL] | 1240

same assay, conditions: mdck; Not Active = under 50% inhibition at 10 µM

Compound | IC50 | Ki
CARBOPLATIN | Not Active | Not Active
GOLD SODIUM THIOMALATE | Not Active | Not Active
OXALIPLATIN | Not Active | Not Active
c1ccc2c(c1)cc1ccc3cccc4ccc2c1c34 | Not Active | 

system: not listed separately; assay: DRUGMATRIX: GABAA, Flunitrazepam, Central radioligand binding (ligand: [3H] Flunitrazepam); assay type: cell membranes, Rattus norvegicus, Wistar, Brain, Membrane; settings: Not Active = under 50% inhibition at 10 µM

Compound | IC50 | Ki
CARBOPLATIN | Not Active | Not Active
GOLD SODIUM THIOMALATE | Not Active | Not Active
OXALIPLATIN | Not Active | Not Active
CCCCCCCCCc1ccc(O)cc1 [4-NONYLPHENOL] | Not Active | Not Active
c1ccc2c(c1)cc1ccc3cccc4ccc2c1c34 | Not Active | Not Active

target: Beta-2 adrenergic receptor (Homo sapiens, UniProt P07550); assay: DRUGMATRIX: Adrenergic beta2 radioligand binding (ligand: [3H] CGP-12177); assay type: cell membranes, Membrane; settings: cho; Not Active = under 50% inhibition at 10 µM

Compound | IC50 | Ki
CARBOPLATIN | Not Active | Not Active
GOLD SODIUM THIOMALATE | Not Active | Not Active
OXALIPLATIN | Not Active | Not Active
CCCCCCCCCc1ccc(O)cc1 [4-NONYLPHENOL] | Not Active | 
c1ccc2c(c1)cc1ccc3cccc4ccc2c1c34 | Not Active | 

target: Cannabinoid receptor 1 (Homo sapiens, UniProt P21554); assay type: cell membranes, Membrane; settings: chem-1; further: in other assays of this panel Not Active means under 50% inhibition at 10 µM
Sequence (P21554 whole entry): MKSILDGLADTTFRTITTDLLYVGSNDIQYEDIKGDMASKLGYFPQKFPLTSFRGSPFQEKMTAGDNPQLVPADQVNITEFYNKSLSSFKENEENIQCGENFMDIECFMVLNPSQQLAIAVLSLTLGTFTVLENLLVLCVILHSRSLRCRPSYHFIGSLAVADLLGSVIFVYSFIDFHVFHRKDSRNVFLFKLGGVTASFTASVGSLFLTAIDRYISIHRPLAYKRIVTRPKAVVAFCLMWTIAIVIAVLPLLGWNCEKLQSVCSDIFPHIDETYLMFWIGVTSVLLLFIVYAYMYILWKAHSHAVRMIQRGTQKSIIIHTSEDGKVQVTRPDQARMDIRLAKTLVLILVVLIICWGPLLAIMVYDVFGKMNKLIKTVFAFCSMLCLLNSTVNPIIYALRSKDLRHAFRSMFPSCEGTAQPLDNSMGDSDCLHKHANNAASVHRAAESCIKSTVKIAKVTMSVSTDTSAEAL

Compound | IC50 | Ki
CARBOPLATIN | Not Active | Not Active
GOLD SODIUM THIOMALATE | Not Active | Not Active
OXALIPLATIN | Not Active | Not Active
CCCCCCCCCc1ccc(O)cc1 [4-NONYLPHENOL] | Not Active | 
c1ccc2c(c1)cc1ccc3cccc4ccc2c1c34 | Not Active | 

system: not listed separately; assay: DRUGMATRIX: Calcium Channel Type L, Dihydropyridine radioligand binding (ligand: [3H] Nitrendipine); assay type: cell membranes, Rattus norvegicus, Wistar, Cerebral cortex, Membrane; settings: Not Active = under 50% inhibition at 10 µM

Compound | IC50 | Ki
CARBOPLATIN | Not Active | Not Active
GOLD SODIUM THIOMALATE | Not Active | Not Active
OXALIPLATIN | Not Active | Not Active
CCCCCCCCCc1ccc(O)cc1 [4-NONYLPHENOL] | Not Active | Not Active
c1ccc2c(c1)cc1ccc3cccc4ccc2c1c34 | Not Active | Not Active

Reference: ChEMBL document CHEMBL1909046, “DrugMatrix in vitro pharmacology data”
